The text below walks through data of patent US9844585B2, “Convection enhanced delivery apparatus, method, and application” (YALE UNIVERSITY, priority 2007, dated 2017).

For data set [1] the following is noted: co-infused with 20% mannitol; cited from earlier work.
The test system of data set [2] is striatum of the normal rat brain. Nature of the data set: In vivo nanoparticle infusions by CED with enzymatic or hyperosmolar treatment.
In a further data set the test system is rat brain. Conditions: hyperosmolar mannitol co-infusion; cited from earlier work.
For another data set, the system named is hyaluronan (HA). Nature of the data set: Histochemical assessment of hyaluronan degradation (HABP staining). The class given is in vivo, rat. The method, then:
Degradation of HA was determined by staining with hyaluronic acid binding protein (HABP) following 1 μL infusions of 1000 U/mL hyaluronidase into the striatum following the same surgical procedure outlined above. Following degradation times of 30 min, 6, 12, and 24 hr brains were harvested and post-fixed in 4% paraformaldehyde in PBS at 4° C. for 4 days. The tissue was cryo-protected in 30% sucrose for 3 days, frozen at −70° C., and sectioned into 50 μm slices. Tissue slices were immersed in biotinylated HABP ([…], Calbiochem 385911) in PBS and left overnight on an orbital shaker. Slides were then immersed Alexa 555-Streptavidin conjugate (2 mg/mL, Invitrogen S21281) for two hours. Following several washing steps in PBS, stained slices were mounted with ProLong Gold Antifade media (Invitrogen P36930) and covered. Fluorescent images were captured using the same set-up described for nanoparticle imaging.

For data set [3] the following is noted: in 0.3% agarose; cited from earlier work.
The test system of another data set is xenografted tumors. The note with it: following collagenase treatment of xenografted tumors; cited from earlier work.

“Also recorded” adds a separate entry of the source.

As to `OC[C@@H](O)[C@@H](O)[C@H](O)[C@H](O)CO` [Mannitol, mannitol], in data set [1], the “distribution volume of 2 kDa dextran” value is reported as “unchanged”. Moreover, in data set [2] (co-infusion of mannitol with nanoparticles), the “entrainment of nanoparticles in perivascular spaces / branched distribution indicative of perivascular transport” value is on record as “attenuated; also recorded: not observed”. Besides, the “increase in nanoparticle distribution volume” value is given as 133% in data set [2] (co-infusion with 25% mannitol, untreated tissue vs untreated tissue without mannitol) and 23% in data set [2] (mannitol co-infusion into enzyme-treated (24 hr hyaluronidase) tissue vs enzyme-treated tissue). Moreover, the “increase in the distribution volume of 40 nm liposomes” value with rat brain is 50%.

Hyaluronidase: the “effect on nanoparticle distribution volume” value in data set [2] (30 min digestion with hyaluronidase) is “no measurable change; also recorded: no measurable effect”. In addition, in data set [2] (24 hr digestion with hyaluronidase vs normal tissue), the “increase in nanoparticle distribution volume” value was 70%. Further, the “degradation of HA by HABP staining” value with hyaluronan (HA) (30 min and 6 hr after 1 μL of 1000 U/mL) is on record as “some evidence of degradation”; in the data set on hyaluronan (HA) (12 hr and 24 hr after 1 μL of 1000 U/mL), “widespread degradation of HA”; in the data set with hyaluronan (HA) (24 hr incubation), “most complete digestion of HA”.

On to albumin, for which the “diffusivity D” value in data set [3] is listed as 8.3×10^−7 cm^2/s.

For collagenase, the “increase in the diffusivity of IgG” value with xenografted tumors is reported as 100%.
